These are literature values, as cited in patent publication US20020128208A1, “Nonpeptide agonists and antagonists of vasopressin receptors” (priority 2000, published 2002).

Structures are written as SMILES.

The series concerns the target V2, V1a or both receptor. The conditions noted are these: prior-art antagonists disclosed by other companies; receptor subtype and species not stated.
As for `Cc1ccccc1C(=O)Nc1ccc(C(=O)N2CCCC(N(C)C)c3ccccc32)cc1` (stereo not shown) [OPC-31260], the Ki is 21.7 nM.

`CC(C)(C)NC(=O)c1ccc(S(=O)(=O)N2C(=O)C3(CCC(OCCN4CCOCC4)CC3)c3ccccc32)cc1` (stereo not shown) [SR121463A]: the Ki was 1.42 nM. As to `Cc1ccc(F)cc1C(=O)Nc1ccc(C(=O)N2Cc3cccn3Cc3ccccc32)c(Cl)c1` [VPA-985], the Ki is 0.5 nM.

Consider `Cc1ccc(F)cc1C(=O)Nc1ccc(C(=O)N2Cc3cccn3Cc3ccccc32)c(Cl)c1` [YM35087], for which the Ki was 1.8 nM.
